Test results: paper PMC8713164, “Development of a 1,2,4-Triazole-Based Lead Tankyrase Inhibitor: Part II” (Journal of Medicinal Chemistry, 2021)
“And” between values parts separate entries of the source, which are not always exact repeats. Identical values can stand only once. Like-named read-outs stand apart in the source and are kept apart here.

Key:
[1] = molecular target: T1, TNKS2 (Homo sapiens, UniProt Q9H2K2); assay: TNKS2 biochemical assay (unreacted NAD+ fluorescence); conditions: TNKS2 5 nM, 500 nM NAD+, 20 h; quadruplicates; 95% confidence intervals in parentheses; 24: averages of multiple independent measurements; read-out: IC50 TNKS2
T1 construct: TNKS2 (residues 873–1162); made in house
T1 sequence (Q9H2K2 873-1162): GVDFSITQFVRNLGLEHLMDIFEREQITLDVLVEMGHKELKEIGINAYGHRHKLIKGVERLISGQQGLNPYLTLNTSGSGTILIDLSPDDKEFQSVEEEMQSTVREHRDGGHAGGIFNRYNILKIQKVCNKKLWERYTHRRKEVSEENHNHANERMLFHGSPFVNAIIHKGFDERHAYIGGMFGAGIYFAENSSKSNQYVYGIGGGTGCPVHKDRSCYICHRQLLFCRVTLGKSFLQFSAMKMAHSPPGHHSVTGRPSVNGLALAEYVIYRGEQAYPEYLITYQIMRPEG
Method: New compounds were prepared in half-log dilution series, and the reactions were carried out in quadruplicates with protein and compound controls to exclude the effect of compound autofluorescence. All reactions were performed at ambient temperature. TNKS1 (20 nM) or TNKS2 (5 nM) was incubated for 20 h in assay buffer (50 mM Bis-Tris propane (BTP), pH 7.0, 0.5 mM Tris(2-carboxyethyl)phosphine (TCEP), 0.01% Triton X-100) with compound and 10 μM or 500 nM NAD^+, respectively.

[2] = tested on: WNT/β-catenin signaling; assay: cellular (HEK293) WNT/β-catenin signaling luciferase reporter assay; format: cell-based, human
[3] = Homo sapiens, HEK293, read-out: IC50 HEK293, HEK293 WNT/β-catenin signaling reporter assay, triplicates, 24: averages of multiple independent measurements
[4] = read-out: IC50 HEK293, HEK293 WNT/β-catenin signaling reporter assay, triplicates, 24: averages of multiple independent measurements
[5] = Homo sapiens, HEK293, read-out: IC50 HEK293

| Structure (SMILES) | IC50 [1] | IC50 [2, 3] [nM] | IC50 [2, 4] [nM] | IC50 [2, 5] [nM] |
| --- | --- | --- | --- | --- |
| O=C(N[C@H]1C[C@H](c2nnc(-c3ccc(OC4CC4)cn3)n2-c2ccccc2F)C1)c1ccccn1 [Compound 7, N-(trans-3-(5-(5-Cyclopropoxypyridin-2-yl)-4-(2-fluorophenyl)-4H-1,2,4-triazol-3-yl)cyclobutyl)picolinamide] | 8.6 nM | 49 | – | – |
| CC(C)Oc1ccc(-c2nnc([C@H]3C[C@H](NC(=O)c4ccccn4)C3)n2-c2ccccc2F)nc1 [Compound 8, N-(trans-3-(4-(2-Fluorophenyl)-5-(5-isopropoxypyridin-2-yl)-4H-1,2,4-triazol-3-yl)cyclobutyl)picolinamide] | 12 nM | 110 | – | – |
| O=C(N[C@H]1C[C@H](c2nnc(-c3ccccc3)n2-c2ccccc2F)C1)c1ccccn1 [Compound 9, N-(trans-3-(4-(2-Fluorophenyl)-5-phenyl-4H-1,2,4-triazol-3-yl)cyclobutyl)picolinamide] | 220 nM and 216 nM | 789 | – | – |
| O=C(N[C@H]1C[C@H](c2nnc(-c3cnccn3)n2-c2ccccc2F)C1)c1ccccn1 [Compound 10, N-(trans-3-(4-(-2-Fluorophenyl)-5-(pyrazin-2-yl)-4H-1,2,4-triazol-3-yl)cyclobutyl)picolinamide] | 93 nM | 355 | – | – |
| CCOc1ccc(-c2nnc([C@H]3C[C@H](NC(=O)c4ccccn4)C3)n2-c2ccccc2)nc1 [Compound 11, N-(trans-3-(5-(5-Ethoxypyridin-2-yl)-4-phenyl-4H-1,2,4-triazol-3-yl)cyclobutyl)picolinamide] | 5.2 nM | 65 | – | – |
| CCOc1ccc(-c2nnc([C@H]3C[C@H](NC(=O)c4ccccn4)C3)n2-c2cccc(Cl)c2)nc1 [Compound 12, N-(trans-3-(4-(3-Chlorophenyl)-5-(5-ethoxypyridin-2-yl)-4H-1,2,4-triazol-3-yl)cyclobutyl)picolinamide] | 13 nM | 83 | – | – |
| CCOc1ccc(-c2nnc([C@H]3C[C@H](NC(=O)c4ccccn4)C3)n2-c2ccc(C)s2)nc1 [Compound 13, N-(trans-3-(5-(5-Ethoxypyridin-2-yl)-4-(5-methylthiophen-2-yl)-4H-1,2,4-triazol-3-yl)cyclobutyl)picolinamide] | 4.6 nM | 37 | – | – |
| CCOc1ccc(-c2nnc([C@H]3C[C@H](NC(=O)c4ccccn4)C3)n2-c2ccc(Cl)s2)nc1 [Compound 14, N-(trans-3-(4-(5-Chlorothiophen-2-yl)-5-(5-ethoxypyridin-2-yl)-4H-1,2,4-triazol-3-yl)cyclobutyl)picolinamide] | 12 nM | 27 | – | – |
| CCOc1ccc(-c2nnc([C@H]3C[C@H](NC(=O)c4ccnc5cccnc45)C3)n2-c2ccccn2)nc1 [Compound 16a, N-(trans-3-(5-(5-Ethoxypyridin-2-yl)-4-(pyridin-2-yl)-4H-1,2,4-triazol-3-yl)cyclobutyl)-1,5-naphthyridine-4-carboxamide] | 5.8 nM | 36 | – | – |
| CCOc1ccc(-c2nnc([C@H]3C[C@H](NC(=O)c4ccnc5cc(F)cnc45)C3)n2-c2ccccn2)nc1 [Compound 16b, N-(trans-3-(5-(5-Ethoxypyridin-2-yl)-4-(pyridin-2-yl)-4H-1,2,4-triazol-3-yl)cyclobutyl)-7-fluoro-1,5-naphthyridine-4-carboxamide] | 8.5 nM | 8.7 | 9 | – |
| CCOc1ccc(-c2nnc([C@H]3C[C@H](NC(=O)c4ccnc5cccnc45)C3)n2-c2cccnc2)nc1 [Compound 17a, N-(trans-3-(5-(5-Ethoxypyridin-2-yl)-4-(pyridin-3-yl)-4H-1,2,4-triazol-3-yl)cyclobutyl)-1,5-naphthyridine-4-carboxamide] | 4.5 nM | 16 | – | – |
| CCOc1ccc(-c2nnc([C@H]3C[C@H](NC(=O)c4ccnc5cc(F)cnc45)C3)n2-c2cccnc2)nc1 [Compound 17b, N-(trans-3-(5-(5-Ethoxypyridin-2-yl)-4-(pyridin-3-yl)-4H-1,2,4-triazol-3-yl)cyclobutyl)-7-fluoro-1,5-naphthyridine-4-carboxamide] | 5.8 nM | 9.1 | 9 | – |
| CCOc1ccc(-c2nnc([C@H]3C[C@H](NC(=O)c4ccnc5cccnc45)C3)n2-c2ccncc2)nc1 [Compound 18a, N-(trans-3-(5-(5-Ethoxypyridin-2-yl)-4-(pyridin-4-yl)-4H-1,2,4-triazol-3-yl)cyclobutyl)-1,5-naphthyridine-4-carboxamide] | 5.4 nM | 13 | – | – |
| CCOc1ccc(-c2nnc(C34CC(NC(=O)c5ccnc6cccnc56)(C3)C4)n2-c2ccccn2)nc1 [Compound 19, N-(3-(5-(5-Ethoxypyridin-2-yl)-4-(pyridin-2-yl)-4H-1,2,4-triazol-3-yl)bicyclo[1.1.1]pentan-1-yl)-1,5-naphthyridine-4-carboxamide] | 13 nM | – | – | 20 |
| CCOc1ccc(-c2nnc(C34CC(NC(=O)c5ccnc6cccnc56)(C3)C4)n2-c2cccnc2)nc1 [Compound 20, N-(3-(5-(5-Ethoxypyridin-2-yl)-4-(pyridin-3-yl)-4H-1,2,4-triazol-3-yl)bicyclo[1.1.1]pentan-1-yl)-1,5-naphthyridine-4-carboxamide] | 9.6 nM | – | – | 30 |
| CCOc1ccc(-c2nnc(C34CC(NC(=O)c5ccnc6cccnc56)(C3)C4)n2-c2ccncc2)nc1 [Compound 21, N-(3-(5-(5-Ethoxypyridin-2-yl)-4-(pyridin-4-yl)-4H-1,2,4-triazol-3-yl)bicyclo[1.1.1]pentan-1-yl)-1,5-naphthyridine-4-carboxamide] | 9.4 nM | – | – | 43 |
| CCOc1ccc(-c2nnc([C@H]3C[C@H](NC(=O)c4ccnc5cc(F)cnc45)C3)n2-c2ccc(C)s2)nc1 [Compound 22b, N-(trans-3-(5-(5-Ethoxypyridin-2-yl)-4-(5-methylthiophen-2-yl)-4H-1,2,4-triazol-3-yl)cyclobutyl)-7-fluoro-1,5-naphthyridine-4-carboxamide] | 1.6 nM | 1 | – | – |
| CCOc1ccc(-c2nnc([C@H]3C[C@H](NC(=O)c4cccc5cccnc45)C3)n2-c2ccc(C)s2)nc1 [Compound 23, N-(trans-3-(5-(5-Ethoxypyridin-2-yl)-4-(5-methylthiophen-2-yl)-4H-1,2,4-triazol-3-yl)cyclobutyl)quinoline-8-carboxamide] | 2.4 nM | 1 | – | – |
| CCOc1ccc(-c2nnc([C@H]3C[C@H](NC(=O)c4cccc5ncc(C)nc45)C3)n2-c2ccccc2F)nc1 [Compound 26, N-(trans-3-(5-(5-Ethoxypyridin-2-yl)-4-(2-fluorophenyl)-4H-1,2,4-triazol-3-yl)cyclobutyl)-3-methylquinoxaline-5-carboxamide] | 1.5 nM | 2.2 | – | – |
| CCOc1ccc(-c2nnc([C@H]3C[C@H](NC(=O)c4cccc5nc(C)cnc45)C3)n2-c2ccccc2F)nc1 [Compound 27, N-(trans-3-(5-(5-Ethoxypyridin-2-yl)-4-(2-fluorophenyl)-4H-1,2,4-triazol-3-yl)cyclobutyl)-2-methylquinoxaline-5-carboxamide] | 1.1 nM | 2.4 | – | – |
| CCOc1ccc(-c2nnc([C@H]3C[C@H](NC(=O)c4cccc5nc(C)c(C)nc45)C3)n2-c2ccccc2F)nc1 [Compound 28, N-(trans-3-(5-(5-Ethoxypyridin-2-yl)-4-(2-fluorophenyl)-4H-1,2,4-triazol-3-yl)cyclobutyl)-2,3-dimethylquinoxaline-5-carboxamide] | 2.6 nM | 4.3 | – | – |
| O=C(N[C@H]1C[C@H](c2nnc(-c3ccc(OC(F)F)cn3)n2-c2ccccc2F)C1)c1cccc2nccnc12 [Compound 29a, N-(trans-3-(5-(5-(Difluoromethoxy)pyridin-2-yl)-4-(2-fluorophenyl)-4H-1,2,4-triazol-3-yl)cyclobutyl)quinoxaline-5-carboxamide] | 1.9 nM | 1.2 | – | – |
| O=C(N[C@H]1C[C@H](c2nnc(-c3ccccn3)n2-c2ccccc2F)C1)c1cccc2nccnc12 [Compound 30a, N-(trans-3-(4-(2-Fluorophenyl)-5-(pyridin-2-yl)-4H-1,2,4-triazol-3-yl)cyclobutyl)quinoxaline-5-carboxamide] | 1.6 nM | 0.29 | 0.286 | – |
